Measured values taken from the supplement of paper PMC10307832.

Columns and labels:
Assay in all cases: relative viability (nuclei count vs DMSO), 5 days (fraction); higher = more cells survive
NCI-H1666 = tested on: NCI-H1666
Procedure, shortened: (§1)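 Lung cancer cell lines in 1536-well plates were dosed by pin tool the day after seeding, either with one drug alone or with a fixed anchor-drug dose plus five library-drug doses (not always all listed) in √10 steps. After 5 days, cells were fixed and their nuclei stained in one step (final 0.05% Triton X-100, 1% formaldehyde, 1 ug/ml Hoechst), then counted on 4× images. Relative viability is the nuclei count in treated wells divided by that in vehicle wells. Values are medians of duplicate plates.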

UMC-11 = tested on: UMC-11
Procedure, shortened: as §1

LU99A = tested on: LU99A
Procedure, shortened: as §1

COR-L 105 = tested on: COR-L 105
Procedure, shortened: as §1

LC-2-ad = tested on: LC-2-ad
Procedure, shortened: as §1

NCI-H1792 = tested on: NCI-H1792
Procedure, shortened: as §1

NCI-H358 = tested on: NCI-H358
Procedure, shortened: as §1

NCI-H1915 = tested on: NCI-H1915
Procedure, shortened: as §1

LXF-289 = tested on: LXF-289
Procedure, shortened: as §1

HCC-78 = tested on: HCC-78
Procedure, shortened: as §1

EPLC-272H = tested on: EPLC-272H
Procedure, shortened: as §1

NCI-H1944 = tested on: NCI-H1944
Procedure, shortened: as §1

NCI-H2170 = tested on: NCI-H2170
Procedure, shortened: as §1

NCI-H2009 = tested on: NCI-H2009
Procedure, shortened: as §1

NCI-H2085 = tested on: NCI-H2085
Procedure, shortened: as §1

SK-LU-1 = tested on: SK-LU-1
Procedure, shortened: as §1

NCI-H460 = tested on: NCI-H460
Procedure, shortened: as §1

SW 900 = tested on: SW 900
Procedure, shortened: as §1

HCC-366 = tested on: HCC-366
Procedure, shortened: as §1

NCI-H1793 = tested on: NCI-H1793
Procedure, shortened: as §1

A-427 = tested on: A-427
Procedure, shortened: as §1

HOP-62 = tested on: HOP-62
Procedure, shortened: as §1

Compound `O=c1cc(N2CCOCC2)oc2c(-c3cccc4c3sc3ccccc34)cccc12` + N=C(N)NC(=N)NCCc1ccccc1 [Phenformin] (partner 250 µM) has a relative viability (NCI-H1666; first compound 0.01 µM) of 0.566, a relative viability (NCI-H1666; first compound 0.03162 µM) of 0.607 and a relative viability (NCI-H1666; first compound 0.1 µM) of 0.526. The relative viability (NCI-H1666; first compound 0.3162 µM) was 0.54, the relative viability (NCI-H1666; first compound 1 µM) was 0.584 and the relative viability (UMC-11; first compound 0.01 µM) was 0.352. It also gave a relative viability (UMC-11; first compound 0.03162 µM) of 0.316, a relative viability (UMC-11; first compound 0.1 µM) of 0.353 and a relative viability (UMC-11; first compound 0.3162 µM) of 0.36. For the same compound, the relative viability (UMC-11; first compound 1 µM) was 0.336, the relative viability (LU99A; first compound 0.01 µM) was 0.558 and the relative viability (LU99A; first compound 0.03162 µM) was 0.833. It also gave a relative viability (LU99A; first compound 0.1 µM) of 0.925, a relative viability (LU99A; first compound 0.3162 µM) of 0.833 and a relative viability (LU99A; first compound 1 µM) of 0.887. The relative viability (COR-L 105; first compound 0.01 µM) was 0.462, the relative viability (COR-L 105; first compound 0.03162 µM) was 0.497 and the relative viability (COR-L 105; first compound 0.1 µM) was 0.607. For the same compound, the relative viability (COR-L 105; first compound 0.3162 µM) was 0.568, the relative viability (COR-L 105; first compound 1 µM) was 0.383 and the relative viability (LC-2-ad; first compound 0.01 µM) was 0.624. For the same compound, the relative viability (LC-2-ad; first compound 0.03162 µM) was 0.592, the relative viability (LC-2-ad; first compound 0.1 µM) was 0.614 and the relative viability (LC-2-ad; first compound 0.3162 µM) was 0.547. For the same compound, the relative viability (LC-2-ad; first compound 1 µM) was 0.534, the relative viability (NCI-H1792; first compound 0.01 µM) was 0.26 and the relative viability (NCI-H1792; first compound 0.03162 µM) was 0.202. For the same compound, the relative viability (NCI-H1792; first compound 0.1 µM) was 0.213, the relative viability (NCI-H1792; first compound 0.3162 µM) was 0.32 and the relative viability (NCI-H1792; first compound 1 µM) was 0.184. The relative viability (NCI-H358; first compound 0.01 µM) was 0.339, the relative viability (NCI-H358; first compound 0.03162 µM) was 0.35 and the relative viability (NCI-H358; first compound 0.1 µM) was 0.351. It also gave a relative viability (NCI-H358; first compound 0.3162 µM) of 0.325, a relative viability (NCI-H358; first compound 1 µM) of 0.322 and a relative viability (NCI-H1915; first compound 0.01 µM) of 0.381. It also gave a relative viability (NCI-H1915; first compound 0.03162 µM) of 0.387, a relative viability (NCI-H1915; first compound 0.1 µM) of 0.371 and a relative viability (NCI-H1915; first compound 0.3162 µM) of 0.386. For the same compound, the relative viability (NCI-H1915; first compound 1 µM) was 0.369, the relative viability (LXF-289; first compound 0.01 µM) was 0.523 and the relative viability (LXF-289; first compound 0.03162 µM) was 0.55. The relative viability (LXF-289; first compound 0.1 µM) was 0.457, the relative viability (LXF-289; first compound 0.3162 µM) was 0.498 and the relative viability (LXF-289; first compound 1 µM) was 0.529. It also gave a relative viability (HCC-78; first compound 0.01 µM) of 0.738, a relative viability (HCC-78; first compound 0.03162 µM) of 0.652 and a relative viability (HCC-78; first compound 0.1 µM) of 0.388. For the same compound, the relative viability (HCC-78; first compound 0.3162 µM) was 0.622, the relative viability (HCC-78; first compound 1 µM) was 0.627 and the relative viability (EPLC-272H; first compound 0.01 µM) was 0.394. The relative viability (EPLC-272H; first compound 0.03162 µM) was 0.316, the relative viability (EPLC-272H; first compound 0.3162 µM) was 0.286 and the relative viability (EPLC-272H; first compound 1 µM) was 0.298. The relative viability (NCI-H1944; first compound 0.01 µM) was 0.212, the relative viability (NCI-H1944; first compound 0.03162 µM) was 0.208 and the relative viability (NCI-H1944; first compound 0.1 µM) was 0.213. For the same compound, the relative viability (NCI-H1944; first compound 0.3162 µM) was 0.207, the relative viability (NCI-H1944; first compound 1 µM) was 0.237 and the relative viability (NCI-H2170; first compound 0.01 µM) was 0.401. For the same compound, the relative viability (NCI-H2170; first compound 0.03162 µM) was 0.422, the relative viability (NCI-H2170; first compound 0.1 µM) was 0.462 and the relative viability (NCI-H2170; first compound 0.3162 µM) was 0.384. The relative viability (NCI-H2170; first compound 1 µM) was 0.39, the relative viability (NCI-H2009; first compound 0.01 µM) was 0.471 and the relative viability (NCI-H2009; first compound 0.03162 µM) was 0.504. The relative viability (NCI-H2009; first compound 0.1 µM) was 0.487, the relative viability (NCI-H2009; first compound 0.3162 µM) was 0.492 and the relative viability (NCI-H2009; first compound 1 µM) was 0.464. For the same compound, the relative viability (NCI-H2085; first compound 0.01 µM) was 0.713, the relative viability (NCI-H2085; first compound 0.03162 µM) was 0.708 and the relative viability (NCI-H2085; first compound 0.1 µM) was 0.625. For the same compound, the relative viability (NCI-H2085; first compound 0.3162 µM) was 0.745, the relative viability (NCI-H2085; first compound 1 µM) was 0.734 and the relative viability (SK-LU-1; first compound 0.01 µM) was 0.573. It also gave a relative viability (SK-LU-1; first compound 0.03162 µM) of 0.551, a relative viability (SK-LU-1; first compound 0.1 µM) of 0.531 and a relative viability (SK-LU-1; first compound 0.3162 µM) of 0.509. For the same compound, the relative viability (SK-LU-1; first compound 1 µM) was 0.45, the relative viability (NCI-H460; first compound 0.01 µM) was 0.285 and the relative viability (NCI-H460; first compound 0.03162 µM) was 0.522. It also gave a relative viability (NCI-H460; first compound 0.1 µM) of 0.558, a relative viability (NCI-H460; first compound 0.3162 µM) of 0.505 and a relative viability (NCI-H460; first compound 1 µM) of 0.544. It also gave a relative viability (SW 900; first compound 0.01 µM) of 0.291, a relative viability (SW 900; first compound 0.03162 µM) of 0.635 and a relative viability (SW 900; first compound 0.1 µM) of 0.485. The relative viability (SW 900; first compound 0.3162 µM) was 0.551, the relative viability (SW 900; first compound 1 µM) was 0.56 and the relative viability (HCC-366; first compound 0.01 µM) was 0.608. It also gave a relative viability (HCC-366; first compound 0.03162 µM) of 0.697, a relative viability (HCC-366; first compound 0.1 µM) of 0.661 and a relative viability (HCC-366; first compound 0.3162 µM) of 0.601. It also gave a relative viability (HCC-366; first compound 1 µM) of 0.668, a relative viability (NCI-H1793; first compound 0.01 µM) of 0.386 and a relative viability (NCI-H1793; first compound 0.1 µM) of 0.345. It also gave a relative viability (NCI-H1793; first compound 0.3162 µM) of 0.375, a relative viability (NCI-H1793; first compound 1 µM) of 0.363 and a relative viability (A-427; first compound 0.01 µM) of 0.31. The relative viability (A-427; first compound 0.03162 µM) was 0.294, the relative viability (A-427; first compound 0.1 µM) was 0.315 and the relative viability (A-427; first compound 0.3162 µM) was 0.313. The relative viability (A-427; first compound 1 µM) was 0.341, the relative viability (HOP-62; first compound 0.01 µM) was 0.555 and the relative viability (HOP-62; first compound 0.03162 µM) was 0.735. For the same compound, the relative viability (HOP-62; first compound 0.1 µM) was 0.671, the relative viability (HOP-62; first compound 0.3162 µM) was 0.575 and the relative viability (HOP-62; first compound 1 µM) was 0.704.
